Counter-ions that a name gives are not always drawn.
Tests used:
[1] = phenyl-p-benzoquinone writhing assay (analgesic activity); type: in vivo, male mice (Charles River, CD-1); conditions: Mus musculus, sc, mice; for inhibition in vivo at 20 mg/kg: s.c., read-out: % Inhibition of writhing at a screening dose of 20 mg/kg, s.c.
Experimental: The compounds of this invention are useful as analgesic agents due to their ability to alleviate pain in mammals. The procedure employed to determine analgetic utility is a modification of the phenyl-p-benzoquinone writhing assay in mice, a standard assay for analgesia [Proc. Soc. Exptl. Bio. Med., 95, 729 (1957)]. Pursuant to the modified procedure phenyl-p-benzoquinone (Eastman, 12.5 mg) is dissolved in 5 ml of 95% ethanol and the solution is diluted to a total volume of 100 ml with distilled water. The solution is administered to the subject mice intraperitoneally at a dose of 10 ml per kg of body weight. A characteristic "writhe"an inward rotation of one or more feet with twisting and turning of the trunk, drawing in of the abdominal wall, lordosis and arching of the back, is produced.
A total of 28 male mice (Charles River, CD-1), weighing 18 to 30 grams, are employed for a time response. The subject animals receive food and water ad libitum. Test compounds are dissolved in distilled water, or suspended in distilled water containing one drop of a suitable surfactant, such as Tween-80.
Four groups of five animals (20 animals) are given the test compound subcutaneously (s.c.) or orally (p.o.) at 15, 30, 45 and 60 minutes prior to administration of the phenyl-p-quinone. A control group (2 animals per group) receive an equal volume of the vehicle. After the administration of the phenyl-p-quinone, the mice are place separately in one liter beakers, and after five minutes, are observed for ten minutes. The number of writhes for each animal is recorded. The following formula is used to compute the percent inhibition: [formula]
The time period with the greatest percent of inhibition is considered the peak time.

[2] = L-5-hydroxytryptophan (5-HTP) potentiation assay, antidepressant activity; type: in vivo, male Wistar rats; conditions: Rattus norvegicus, ip, read-out: 5-HTP Potentiation ED50
Experimental: The compounds of this invention are also useful as antidepressants by virtue of their ability to elicit an antidepressant response in mammals. Antidepressant activity is determined by the L-5-hydroxytryptophan potentiation assay in rats described in Brit. J. Pharmacol., 20, pp. 106-120 (1963) and J. Med. Chem., 24, 74 (1980).
Groups of six male Wistar rats (150-200 grams each) are used in this assay. Pursuant to this procedure pargyline hydrochloride is prepared and administered four hours before testing by subcutaneous injection at 75 mg/kg in 1% saline and at dosage volume of 1.0 ml/kg. Thirty minutes before testing, drugs are prepared and dosed using distilled water and, if insoluble, a suitable surfactant is added. Control groups receive vehicle. Drugs are routinely administered intraperitoneally at a dosage volume of 10 ml/kg. L-5-hydroxytryptophan (5-HTP) is prepared at 1.0 mg/kg in distilled water and is administered intraperioneally in volumes proportional to 10 ml/kg. Drugs are administered in a randomized manner and 15 minutes post 5-HTP treatment, the animals are observed for 15 minutes.
Potentiation is expressed as normalized percent potentiation relative to vehicle control.

[3] = Metrazol lethality assay (MTZ), anticonvulsant activity; type: in vivo, male mice (Charles River, CD-1); conditions: Mus musculus, po, mice, protection against Metrazol lethality
Experimental: (§1) The compounds of this invention are also useful as anticonvulsants due to their anticonvulsant activity in mammals. Anticonvulsant activity is measured in male mice using the supramaximal electroshock (SES) assay described in Arch. Int. Pharmacodyn. 92, pp. 97-107, (1952) and the metrazol lethality assay (MTZ) described in J. Pharmacol. Exp. Ther., 81, 402 (1944).
Groups of male mice (Charles River, CD-1), weighing 18 to 30 grams are employed in the Metrazol lethality assay. Test compounds are dissolved in distilled water or if insoluble, suspended in water, to which a surfactant, such as Tween-80 is added. The test compounds are administered orally, the administered dose being dissolved or suspended in 10 ml of solution or suspension per kg of animal body weight. Control animals (2 mice/group) receive water or water and Tween-80, i.e., the vehicle for administration of the test compound. Metrazol (pentylenetetrazol) is dissolved in water (concentration 225 mg of Metrazol/10 ml of solution), and the solution is administered subcutaneously to groups of five animals each at one or more time intervals of 15, 30, 60, 90, or 120 minutes after administration of the test compound. The number of animal alive 15 minutes after treatment with Metrazol is determined and recorded. The following formula is employed to calculate the percent protection against Metrazol lethality. [formula] […]

[4] = antihypertensive activity, indirect tail cuff method (SHR); type: in vivo, spontaneous hypertensive rat; conditions: treated three days, drop measured on third day, decrease in mean arterial blood pressure
Experimental: The compounds of this invention are also useful as antihypertensive agents due to their ability to depress blood pressure in mammals. Antihypertensive activity is measured in the spontaneous hypertensive rat by the indirect tail cuff method described in "Methods in Pharmacology", A. Schwartz, Ed., Vol. I, Appleton-Century Crofts, New York, N.Y., 1971, p. 135. In this procedure a group of five animals is treated orally for three days with the test compound in relation to a control group of the same number. The drop in blood pressure is measured on the third day following administration. The antihypertensive activities of representative compounds, expressed as a decrease in mean arterial blood pressure (in mm Hg), are given in Table 3 along with the activity of a standard compound.

[5] = supramaximal electroshock (SES) assay, anticonvulsant activity; type: in vivo, male mice (Charles River, CD-1); conditions: Mus musculus, ip, mice
Experimental: as §1
Groups of male mice (Charles River, CD-1) weighing 18 to 30 g are employed in the SES assay. Test compounds are dissolved in distilled water, or if insoluble, suspended in water containing one drop of a surfactant, such as Tween-80. Test compounds are generally administered intraperitoneally at a dose of 10 ml of solution, or suspension, per kg of animal body weight. The output terminals of an A.C. shocker, which delivers 206 volts rms for 300 msec, are placed across the animals' eyes, an electrode paste coating assuring contact of the terminals with the eyes. The test compound is administered and thereafter the subject animals are shocked.
Protection is expressed as normalized percent inhibition relative to vehicle control. [formula] A time response is carried out using 6 animals per group. Animals are tested at 30, 60 and 120 minutes post drug. Additional time periods are tested if indicated by previous tests. A dose range determination is generally reserved for those compounds which inhibit convulsions by greater than about 45-55% at the screening dose employed at the time the test was performed. When the peak activity time has been determined, a dose response is initiated, using 10 animals per group at that time period.
The anticonvulsant activity of several of the compounds of this invention as per the SES and MTZ assay procedures is provided in Table 2.

NC(=O)N1[C@@H]2CC[C@H]1C[C@H](Oc1c(F)c(F)c(F)c(F)c1F)C2 [(exo)-8-(aminocarbonyl)-3-(2,3,4,5,6-pentafluorophenoxy)-8-azabicyclo[3.2.1]octane]
inhibition in vivo at 20 mg/kg [1]: 32%

CN1[C@@H]2CC[C@H]1C[C@H](Oc1c(F)c(F)c(F)c(F)c1F)C2 [exo-3-(2,3,4,5,6-pentafluorophenoxy)-8-methyl-8-azabicyclo[3.2.1]octane hydrochloride]
ED50 [2]: 13.4 mg/kg | inhibition in vivo at 20 mg/kg [1]: 43%

CC(=O)N1[C@@H]2CC[C@H]1C[C@H](Oc1c(F)c(F)c(F)c(F)c1F)C2 [(exo)-8-acetyl-3-(2,3,4,5,6-pentafluorophenoxy)-8-azabicyclo[3.2.1]octane]
ED50 [3]: 41.9 mg/kg

CN1[C@@H]2CC[C@H]1C[C@@H](Oc1c(F)c(F)c(F)c(F)c1F)C2 [(endo)-3-(2,3,4,5,6-pentafluorophenoxy)-8-methyl-8-azabicyclo[3.2.1]octane]
ED50 [2]: 16.2 mg/kg

Fc1ccc2c(CCCN3[C@@H]4CC[C@H]3C[C@H](Oc3c(F)c(F)c(F)c(F)c3F)C4)noc2c1 [(EXO)-8-[3-(6-FLUORO-1,2-BENZISOXAZOL-3-YL)PROPYL]-3-(2,3,4,5,6-PENTAFLUOROPHENOXY)-8-AZABICYCLO[3.2.1]OCTANE HYDROCHLORIDE]
inhibition in vivo at 20 mg/kg [1]: 49% | mm dec. in BP at 50 mg/kg p.o. [4]: 48 mm

CN1[C@@H]2CC[C@H]1C[C@](Oc1c(F)c(F)c(F)c(F)c1F)(c1ccccc1)C2 [(endo)-3-(2,3,4,5,6-pentafluorophenoxy)-8-methyl-3-phenyl-8-azabicyclo[3.2.1]octane hydrochloride]
inhibition in vivo at 20 mg/kg [1]: 42%

CN1[C@@H]2CC[C@H]1C[C@@H](Oc1c(F)c(F)c(F)c(F)c1F)C2 [endo-3-(2,3,4,5,6-pentafluorophenoxy)-8-methyl-8-azabicyclo[3.2.1]octane oxalate]
inhibition in vivo at 20 mg/kg [1]: 49%

Cc1[nH]c2ccccc2c1CCCN1[C@@H]2CC[C@H]1C[C@@H](Oc1c(F)c(F)c(F)c(F)c1F)C2 [(ENDO)-3-(2,3,4,5,6-PENTAFLUOROPHENOXY)-8-[3-(2-METHYLINDOL-3-YL)PROPYL]-8- AZABICYCLO[3.2.1]OCTANEHYDROCHLORIDE]
inhibition in vivo at 20 mg/kg [1]: 39%

COc1cc2onc(CCCN3[C@@H]4CC[C@H]3C[C@@H](Oc3c(F)c(F)c(F)c(F)c3F)C4)c2cc1OC [(ENDO)-3-(2,3,4,5,6-PENTAFLUOROPHENOXY)-8-[(5,6-DIMETHOXY-1,2-BENZISOXAZOL- 3-YL)PROPYL]-8-AZABICYCLO[3.2.1]OCTANEHYDROCHLORIDE]
ED50 [2]: 21.1 mg/kg | inhibition in vivo at 20 mg/kg [1]: 37%

CN(C)C(=O)N1[C@@H]2CC[C@H]1C[C@H](Oc1c(F)c(F)c(F)c(F)c1F)C2 [(exo)-3-(2,3,4,5,6-pentafluorophenoxy)-8-[(N,N-dimethylamino)carbonyl]-8-azabicyclo[3.2.1]octane]
inhibition in vivo at 20 mg/kg [1]: 39%

CC(=O)N1[C@@H]2CC[C@H]1C[C@@H](Oc1c(F)c(F)c(F)c(F)c1F)C2 [endo-8-acetyl-3-(2,3,4,5,6-pentafluorophenoxy)-8-azabicyclo[3.2.1]octane]
ED50 [5]: 35.1 mg/kg

COc1ccccc1N1CCN(CCCN2[C@@H]3CC[C@H]2C[C@@H](Oc2c(F)c(F)c(F)c(F)c2F)C3)CC1 [(endo)-3-(2,3,4,5,6-pentafluorophenoxy)-8-[3-[4-(2-methoxyphenyl)piperazin-1-yl]propyl]-8-azabicyclo[3.2.1]octane]
inhibition in vivo at 20 mg/kg [1]: 55%

Fc1c(F)c(F)c(O[C@@H]2C[C@H]3CC[C@@H](C2)N3)c(F)c1F [(exo)-3-(2,3,4,5,6-pentafluorophenoxy)-8-azabicyclo[3.2.1]octane]
ED50 [2]: 8.4 mg/kg

N=C(N)NCCN1CCCCCCC1 [guanethidine, reference compound]
mm dec. in BP at 50 mg/kg p.o. [4]: 20 mm

Cc1[nH]c2ccccc2c1CCCN1[C@@H]2CC[C@H]1C[C@H](Oc1c(F)c(F)c(F)c(F)c1F)C2 [(EXO)-3-(2,3,4,5,6-PENTAFLUOROPHENOXY)-8-[3-(2-METHYLINDOL-3-YL)PROPYL]-8-AZABICYCLO[3.2.1]OCTANE HYDROCHLORIDE]
inhibition in vivo at 20 mg/kg [1]: 42%

Fc1c(F)c(F)c(O[C@H]2C[C@H]3CC[C@@H](C2)N3)c(F)c1F [(endo)-3-(2,3,4,5,6-pentafluorophenoxy)-8-azabicyclo[3.2.1]octane hydrochloride]
ED50 [2]: 15.6 mg/kg

CN(C)CCC=C1c2ccccc2CCc2ccccc21 [amitriptyline, reference compound]
ED50 ([2]; rats): 7.1 mg/kg

CCC1(c2ccccc2)C(=O)NC(=O)NC1=O [phenobarbital, reference compound]
ED50 [5]: 8.4 mg/kg

NC(=O)N1[C@@H]2CC[C@H]1C[C@@H](Oc1c(F)c(F)c(F)c(F)c1F)C2 [(endo)-8-aminocarbonyl-3-(2,3,4,5,6-pentafluorophenoxy)-8-azabicyclo[3.2.1]octane]
ED50 [3]: 12.7 mg/kg | inhibition in vivo at 20 mg/kg [1]: 38% | ED50 [5]: 25.2 mg/kg

CP(C)(=O)CN1[C@@H]2CC[C@H]1C[C@@H](Oc1c(F)c(F)c(F)c(F)c1F)C2 [(endo)-3-(2,3,4,5,6-pentafluorophenoxy)-8-[(dimethylphosphinyl)methyl]-8-azabicyclo[3.2.1]octane]
ED50 [2]: 10.8 mg/kg

CC(=O)Oc1ccccc1C(=O)O [Asprin, reference compound]
ED50 ([1]; column head s.c., read-out: ED50 (calculated dosage at which a 50% inhibition of writhing is achieved)): 32.8 mg/kg

Fc1ccc2c(CCCN3[C@@H]4CC[C@H]3C[C@@H](Oc3c(F)c(F)c(F)c(F)c3F)C4)noc2c1 [(ENDO)-8-[3-(6-FLUORO-1,2-BENZISOXAZOL-3-YL)PROPYL]-3-(2,3,4,5,6-PENTAFLUOROPHENOXY)-8-AZABICYCLO[3.2.1OCTANE HYDROCHLORIDE]
inhibition in vivo at 20 mg/kg [1]: 45%

From US4861889A, “3-(2,3,4,5,6-pentafluorophenoxy)-8-azabicyclo[3.2.1]octanes” (Hoechst-Roussel Pharmaceuticals, Inc., priority 1988, dated 1989)
